According to patent publication US12190997B2, “Genetically altered LysM receptors with altered agonist specificity and affinity” (Aarhus Universitet, priority 2018, dated 2025):

Tests used:
[1] = target: LjLYS11 ectodomain (Lotus japonicus, UniProt D3KTZ8); assay: BLI binding of LjLYS11 ectodomain to ligands; conditions: FIG. 15C
Protocol: LjLYS11 ectodomain production and purification: The LjLYS11 ectodomain (residues 26-234; SEQ ID NO:60) was codon-optimized for insect cell expression (Genscript, Piscataway, USA) and cloned into the pOET4 baculovirus transfer vector (Oxford Expression Technologies). The native LjLYS11 signal peptide was replaced with the gp64 signal peptide (SEQ ID NO:59) to facilitate secretion and a hexa-histidine (6×His; SEQ ID NO:61) tag was added to the C-terminus (LjLYS11-ecto (26-234), N-term gp64, C-term 6His=SEQ ID NO:56). Recombinant baculoviruses were produced in Sf9 cells (Spodoptera frugiperda) using the FlashBac Gold kit (Oxford Expression technologies) according to the manufacturer's instructions with Lipofectin (ThermoFisher Scientific) as a transfection reagent. Protein expression was performed as follows. […]
Biolayer interferometry (BLI): Binding of LjLYS11 ectodomain and domain-swapped versions of LjLYS11 ectodomain to ligands was measured on an Octet RED 96 system (Pall ForteBio). […] Equilibrium dissociation constants derived from the steady-state were determined by applying a non-linear regression (one site, specific binding) to the response at equilibrium plotted against the protein concentration. Kinetic parameters were determined by non-linear regression (association followed by dissociation) on the subtracted data. […]

[2] = tested on: ectodomain where LysM2 from LjLYS11 was replaced with LysM2 from LjNFR5; assay: BLI binding of LjLYS11 ectodomain with LysM2 replaced by LysM2 from LjNFR5; design: species or system Lotus japonicus; conditions: FIG. 15D
Protocol: Biolayer interferometry (BLI): Binding of LjLYS11 ectodomain and domain-swapped versions of LjLYS11 ectodomain to ligands was measured on an Octet RED 96 system (Pall ForteBio). The ligands used were CO5 chitin oligomer (corresponding to the backbone of S. meliloti LCO-V), M. loti LCO, and S. meliloti LCO. S. meliloti LCO consists of a tetrameric/pentameric N-acetylglucosamine backbone that is O-sulfated on the reducing terminal residue, O-acetylated on the non-reducing terminal residue, and mono-N-acylated by unsaturated C16 acyl groups. M. loti LCO is a pentameric N-acetylglucosamine with a cis-vaccenic acid and a carbamoyl group at the non-reducing terminal residue together with a 2,4-O-acetylfucose at the reducing terminal residue. Biotinylated ligand conjugates were immobilized on streptavidin biosensors (kinetic quality, Pall ForteBio) at a concentration of 125-250 nM for 5 minutes. Data analysis was performed in GraphPad Prism 6 software (GraphPad Software, Inc.). Equilibrium dissociation constants derived from the steady-state were determined by applying a non-linear regression (one site, specific binding) to the response at equilibrium plotted against the protein concentration. Kinetic parameters were determined by non-linear regression (association followed by dissociation) on the subtracted data. […]

[3] = tested on: HvRLK10 ectodomain; assay: BLI binding of HvRLK10 ectodomain to ligands; design: species or system Hordeum vulgare; conditions: FIGS. 16A, 16C-16D
Protocol: (§1) Expression and purification of ectodomain: The HvRLK10 ectodomain (residues 25-231; SEQ ID NO:66) was codon-optimized for insect cell expression (Genscript, Piscataway, USA) and cloned into the pOET4 baculovirus transfer vector (Oxford Expression Technologies). The native HvRLK10 signal peptide was replaced with the gp64 signal peptide (SEQ ID NO:59) to facilitate secretion and a hexa-histidine (6×HIS; SEQ ID NO:61) tag was added to the C-terminus (HvRLK10-ecto (25-231), N-term gp64, C-term 6His=SEQ ID NO:65). The HvRLK4 ectodomain (residues 27-228; SEQ ID NO:68) was codon-optimized for insect cell expression (Genscript, Piscataway, USA) and cloned into the pOET4 baculovirus transfer vector (Oxford Expression Technologies). […]
(§2) Biolayer interferometry (BLI): Binding of HvRLK10 ectodomain or HvRLK4 ectodomain to ligands was measured on an Octet RED 96 system (Pall ForteBio). […] Equilibrium dissociation constants derived from the steady-state were determined by applying a non-linear regression (one site, specific binding) to the response at equilibrium plotted against the protein concentration. Kinetic parameters were determined by non-linear regression (association followed by dissociation) on the subtracted data.

[4] = tested on: HvRLK4 ectodomain; assay: BLI binding of HvRLK4 ectodomain to ligands; design: species or system Hordeum vulgare; conditions: FIGS. 16E, 16G-16H
Protocol: as §1, §2

LjLYS11 ectodomain, sequence (D3KTZ8 entry or part of it): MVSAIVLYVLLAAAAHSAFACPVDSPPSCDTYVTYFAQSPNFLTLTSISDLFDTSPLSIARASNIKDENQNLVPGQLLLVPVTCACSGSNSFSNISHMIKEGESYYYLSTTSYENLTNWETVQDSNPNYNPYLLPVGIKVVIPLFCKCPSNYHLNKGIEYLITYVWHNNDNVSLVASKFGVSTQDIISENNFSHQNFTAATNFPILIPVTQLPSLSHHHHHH

CC(=O)N[C@H]1[C@H](O[C@H]2[C@H](O)[C@@H](NC(C)=O)[C@H](O[C@H]3[C@H](O)[C@@H](NC(C)=O)C(O)O[C@@H]3CO)O[C@@H]2CO)O[C@H](CO)[C@@H](O[C@@H]2O[C@H](CO)[C@@H](O[C@@H]3O[C@H](CO)[C@@H](O)[C@H](O)[C@H]3NC(C)=O)[C@H](O)[C@H]2NC(C)=O)[C@@H]1O (stereo partly shown) [CO5] was tested, and the binding [1] was “able to bind”, the “binding compared with unmodified LjLYS11 ectodomain” value [2] was “loss of ability to bind” and the binding [3] was “did not bind”. For the same molecule, the binding [4] was “did not bind”.
